Experimental data from patent US11807685B2, “Anti-CD47 antibody and uses thereof” (THE UAB RESEARCH FOUNDATION, priority 2021, dated 2023).

Assays:
[1] = system: MDA-MB-231 cells; test: In vitro cytotoxicity assay (CellTiter-Glo); type: cell-based, human; conditions: for cell viability: 3-day assay
Method: (§1) The 96-well plates were seeded with MDA-MB-231 and MDA-MB-468 cells at VCD of 5×10^5 cells/mL in 100 μL of DMEM/F12 complete medium with triplication. Then 100 μL of cell growth medium containing ADC or free drug was added to reach final concentrations of 0-200 nM and incubated in CO2 incubator for 72 hrs. The cytotoxicity of ADC or free drug was measured with CellTiter-Glo Luminescent Cell Viability Assay (Promega, Madison, […]) and reported as the relative viability using untreated cells as control. The IC50 value was calculated using ED50V10 Excel add-in.

[2] = system: MDA-MB-468 cells; test: In vitro cytotoxicity assay (CellTiter-Glo); type: cell-based, human; conditions: for cell viability: 3-day assay
Method: as §1

[3] = system: CD47; test: Western blotting of CD47 in GC treated MDA-MB-231 cells; type: cell-based, human; conditions: 10 nM for 3 weeks
Method: The non-reducing SDS-PAGE was run by loading 2 μg of mAb or ADC to Bolt™ 4 to 12%, Bis-Tris Mini Protein Gel (1.0 mm) to validate the purity and integrality of the produced anti-CD47 mAb and ADC. In Western blotting analysis, 30 μg of total cell lysis protein was loaded to gel and electro-transferred to PVDF membrane using PowerEase™ Touch 350 W Power Supply (Fisher). After blocking, the blotted membrane was probed using primary rabbit anti-mouse antibody and HRP-conjugated secondary anti-rabbit antibody (Abcam, Cambridge, UK). The blotted membrane was treated with Luminata Forte Western HRP substrate (Millipore, Boston, MA). The SDS-PAGE and Western blots were imaged with MyECL imager and quantified using ImageJ software.
The surface expression of CD47 in TNBC cell lines was analyzed using mass spectrometry (MS, Thermo Orbitrap Velos Pro) at the University of Alabama at Birmingham (UAB) MS and proteomics core facility. […] Furthermore, to confirm the CD47 upregulation by chemotherapy, we treated MDA-MB-231 cells with 10 nM GC for 3 weeks.

[4] = system: MDA-MB-231-FLuc xenograft; test: IVIS imaging of in vivo TNBC targeting; parameters: species or system mouse
Excerpt: (§2) Human TNBC xenograft mouse model was generated by subcutaneously (s.c.) injecting 3×10^6 of MDA-MB-231-FLuc cells into the 6-week-old NSG (NOD scid gamma) female mice (Jackson Labs, Bar Harbor, ME). This immunocompromised model was used to evaluate the tumor targeting of our mAb and anti-TNBC efficacy of the constructed ADC. The immunocompetent mouse model was generated by injecting 1×10^6 of mouse TNBC 4T1-FLuc cells into the BALB/cJ female mice, which was used to analyze the tumoral immunity. Mice developed tumors within 2 weeks post cells injection.
When TNBC tumor volume reached approximately 100 mm^3, 50 μg of Cyanine 5.5 (Cy5.5, Lumiprobe, Hunt Valley, MD) labelled anti-CD47 mAb or 1.5 nmole Cy5.5 (control, similar amount as labelled Cy5.5 in mAb) was intravenously (i.v.) administrated via tail vein for TNBC-targeting analysis. Mice were imaged at 24 hrs post mAb injection under IVIS Lumina Series III (PerkinElmer, Waltham, MA) with wavelength of 660 nm/710 nm (excitation/emission) and exposure time of 10 seconds. Inhalation anesthesia was induced by delivering 3.5-4.5% isoflurane in oxygen to mice via respiratory system (nose cone), then maintained with a concentration of 1-2% during imaging procedure.

[5] = system: MDA-MB-231 cells; test: Flow cytometry surface binding; parameters: species or system human; conditions: MDA-MB-231, mAb-AF647, flow cytometry
Method: (§3) The flow cytometry was conducted to analyze anti-CD47 mAb's binding rate to TNBC cells and quantify the immune cells using a BD LSRII flow cytometer (BD Biosciences, San Jose, CA). In surface binding analysis, the produced CD47 mAb was labelled with an Alexa Fluor™ 647 labelling kit (Life Technologies, part of Fisher) and used to stain MDA-MB-468, MDA-MB-231, 4T1, and 184B5 cells with 5 μg of mAb-AF647 per million of cells at room temperature for 30 mins (Ou, J.; et al. PLOS ONE 2018; Si, Y.; et al. Pharmaceutics 2020, 12:1079-1090; Ou, J.; et al. J Biol Eng 2019, 13:34). The harvested lymph nodes were dissociated with Tissue Dissociation/Single Cell Isolation Kit (101 Bio LLC, Sunnyvale, CA) following manufacturing procedure, and stained with Cy5 anti-CD69 antibody, APC anti-CD11c antibody, or PE/Cy7 anti-CD4 antibody (BioLegend, San Diego, CA) for flow cytometry analysis.

[6] = system: MDA-MB-468 cells; test: Flow cytometry surface binding; parameters: species or system human; conditions: MDA-MB-468, mAb-AF647, flow cytometry
Method: as §3

[7] = system: 4T1 cells; test: Flow cytometry surface binding; conditions: mouse TNBC 4T1, mAb-AF647, flow cytometry
Method: as §3

[8] = system: normal breast 184B5 cells; test: Flow cytometry surface binding; conditions: normal 184B5 cells, mAb-AF647, flow cytometry
Method: as §3

[9] = system: MDA-MB-468 cells; test: Live-cell confocal imaging of internalization; type: cell-based, human; conditions: AF647 labelled mAb
Excerpt: Confocal microscopy imaging was collected to validate the targeting and internalization of anti-CD47 mAb in TNBC cells following our reported protocol (Si, Y.; et al. Cancer Gene Therapy. Cancer Gene Therapy 2020; Si, Y.; et al. Eng Life Sci 2021, 21:37-44; Ou, J.; et al. PLOS ONE 2018; Si, Y.; et al. Pharmaceutics 2020, 12:1079-1090; Si, Y.; et al. Biotechnol J 2019). Briefly, the MDA-MB-468 cells were stained with BacMam GFP Transduction Control, which expresses eGFP protein in cytoplasm, NucBlue Live ReadyProbes to stain nucleus, and AF647 labelled anti-CD47 mAb to target TNBC cells via surface receptor. The live-cell images were collected using a Nikon A1R-HD25 confocal microscope with a high-speed resonance scanner (Nikon USA, Melville, NY).

[10] = system: MDA-MB-231-FLuc xenograft; test: In vivo anti-TNBC efficacy study; parameters: species or system mouse; unit not given here; conditions: 8 mg/kg i.v. Q4Dx4, terminal tumor; no significant difference to PBS group
Excerpt: as §2
The TNBC MDA-MB-231-FLuc xenograft mice were treated with 16 mg/kg-BW of GC by intraperitoneal (IP) injection when tumor volume reached ˜50 mm^3. […] Tumor volume was measured using an electronic caliper and calculated as “width×width×length/2” in mm. Body weight was measured every other day. The in vivo treatment study was ended after 21-day treatment which was determined based on our previous ADC treatment animal study (Si, Y.; et al. Eng Life Sci 2021, 21:37-44; Ou, J.; et al. PLoS One 2018, 13:e0206246; Xu, N.; et al. Biochemical Engineering Journal 2019, 145:177-185). At the end of the experiment, mice were euthanized and the TNBC tumors were collected to measure the wet weight.

[11] = Toxicity in the efficacy study (body weight, H&E staining of organs); type: in vivo, mouse; conditions: 8 and 24 mg/kg ADC, 8 mg/kg mAb, PBS; Q4Dx4
Method: […] […] Tumor volume was measured using an electronic caliper and calculated as “width×width×length/2” in mm. Body weight was measured every other day. The in vivo treatment study was ended after 21-day treatment which was determined based on our previous ADC treatment animal study (Si, Y.; et al. Eng Life Sci 2021, 21:37-44; Ou, J.; et al. PLoS One 2018, 13:e0206246; Xu, N.; et al. Biochemical Engineering Journal 2019, 145:177-185). At the end of the experiment, mice were euthanized and the TNBC tumors were collected to measure the wet weight.
The IHC and H&E staining were performed. In IHC staining, the paraffin-embedded slides were immersed in xylene followed by 3% H2O2 in PBS, and blocked with 3% normal goat serum. The rabbit anti-mouse CD11b mAb (Cell Signaling, Danvers, MA) and HRP-conjugated goat anti-rabbit IgG mAb were used to stain the macrophage in tumor tissue. After color development with DAB chromogen, the slides were counterstained with hematoxylin and dehydrated in absolute ethanol. In H&E staining, the embedded normal organ slides were dewaxed, hydrated with 100%-0% ETOH, immersed in hematoxylin solution, and rinsed with tap water and eosin. After equilibration in ethanol, the stained slides were dipped in Xylene and mounted with cytoseal Xyl.

[12] = Whole blood analysis (HemaVet 950FS) in 4T1 xenograft BALB/cJ model; type: in vivo, mouse; conditions: 8 mg/kg, after two weeks, BALB/cJ 4T1 xenograft
Excerpt: The blood samples were extracted by cardiac puncture for whole blood analysis using HemaVet 950FS (Drew Scientific, Miami Lakes, FL). The leukocytes (white blood cell, neutrophil, lymphocyte, monocyte, eosnophils), erythrocytes (red blood cell, hemoglobin, mean corpuscular hemoglobin), and thrombocytes (platelet) were titrated to analyze the general peripheral immune response.
as §2
The general immune response to anti-CD47 mAb was also tested using whole blood analysis and flow cytometry analysis of lymph nodes in the 4T1 xenograft BALB/cJ model (n=4). The mice carrying 50 mm^3 xenograft were treated with 8 mg/kg anti-CD47 mAb. After two weeks, blood was collected through cardiac puncture. […] The lymph nodes were also harvested and dissociated for flow cytometry analysis of fresh cells. […]

[13] = system: lymph node immune cells; test: Flow cytometry analysis of immune cells in lymph nodes, 4T1 xenograft BALB/cJ model; type: in vivo, mouse; conditions: 8 mg/kg, BALB/cJ 4T1 xenograft
Method: as §3, §2
The general immune response to anti-CD47 mAb was also tested using whole blood analysis and flow cytometry analysis of lymph nodes in the 4T1 xenograft BALB/cJ model (n=4). The mice carrying 50 mm^3 xenograft were treated with 8 mg/kg anti-CD47 mAb. After two weeks, blood was collected through cardiac puncture. […] The lymph nodes were also harvested and dissociated for flow cytometry analysis of fresh cells. […] In the future, a full investigation of immune function in tumor microenvironment is needed in order to delineate the possible anti-TNBC immunity of this mAb.

Molecule: COc1cc2cc(c1Cl)N(C)C(=O)C[C@H](OC(=O)[C@H](C)N(C)C(=O)CCS)[C@]1(C)O[C@H]1[C@H](C)[C@@H]1C[C@@](O)(NC(=O)O1)[C@H](OC)/C=C/C=C(\C)C2 [DM1, mertansine]
- cell viability ([1]; MDA-MB-231, 25 nM): 94%
- cell viability ([1]; MDA-MB-231, 50 nM): 72%
- cell viability ([1]; MDA-MB-231, 100 nM): 53%
- cell viability ([1]; MDA-MB-231, 200 nM): 54%
- IC50 ([1]; MDA-MB-231, 72 hrs): 47 nM
- cell viability ([2]; MDA-MB-468, 25 nM): 56%
- cell viability ([2]; MDA-MB-468, 50 nM): 37%
- cell viability ([2]; MDA-MB-468, 100 nM): 32%
- cell viability ([2]; MDA-MB-468, 200 nM): 34%
- IC50 ([2]; MDA-MB-468, 72 hrs): 21 nM

Molecule: Nc1ccn([C@@H]2O[C@H](CO)[C@@H](O)C2(F)F)c(=O)n1 [GC, gemcitabine]
- CD47 expression [3]: increased

Molecule: Cyanine 5.5 [Cy5.5]
- distribution in major organs (brain, heart, lung, spleen, kidney, liver) ([4]; 24 hrs post i.v. injection, IVIS): distributed in multiple locations such as brain, liver and kidney

B1: anti-CD47 mAb: anti-CD47 mAb (IgG2b/kappa) targeting the extracellular domain (Gln19-Glu141) of CD47; heavy chain SEQ ID NO:1, light chain SEQ ID NO:2 (antibody)
heavy: MLLGLKWVFFVVFYQGVHCEVQLVESGGGLVQPKGSLKLSCAASGFTFNTYAMNWVRQAPGKGLEWIARIRSKSNNYATYYADSMKDRFTISRDDSQSMLYLQMNNLKTEDTAMYYCVRPAQGAMDYWGHGTSVTVSSSKTTPPSVYPLAPGCGDTTGSSVTLGCLVKGYFPESVTVTWNSGSLSSSVHTFPALLQSGLYTMSSSVTVPSSTWPSQTVTCSVAHPASSTTVDKKLEPSGPISTINPCPPCKECHKCPAPNLEGGPSVFIFPPNIKDVLMISLTPKVTCVVVDVSEDDPDVQISWFVNNVEVHTAQTQTHREDYNSTIRVVSTLPIQHQDWMSGKEFKCKVNNKDLPSPIERTISKIKGLVRAPQVYILPPPAEQLSRKDVSLTCLVVGFNPGDISVEWTSNGHTEENYKDTAPVLDSDGSYFIYSKLNMKTSKWEKTDSFSCNVRHEGLKNYYLKKSFSRTPGK
light: MVFTPQILGLMLFWISASRGDIVLTQSPATLSVTPGDSVSLSCRASQRISNNLHWYQQKSHESPRLLIKYSSQSISGIPSRFSGSGSGTDFTLSINSVETEDFGMYFCQQSNAWPYTFGGGTKLEIRRADAAPTVSIFPPSSEQLTSGGASVVCFLNNFYPKDINVKWKIDGSERQNGVLNSWTDQDSKDSTYSMSSTLTLTKDEYERHNSYTCEATHKTSTSPIVKSFNRNEC
- surface binding [5]: 97.3%
- surface binding [6]: 98.9%
- surface binding [7]: 90.5%
- surface binding [8]: 4.39%
- time to internalization and localization in cytoplasm after mixing [9]: ≤ 60 min
- time to targeting and accumulation in TNBC tumor post i.v. injection ([4]; mouse, in vivo, iv): ≤ 24 h
- tumor weight [10]: 307±76
- overall body weight change among the four groups [11]: no obvious difference
- leukocytes, erythrocytes and thrombocytes counts vs PBS control group [12]: no obvious difference
- CD11c+ DC cells in lymph nodes ([13]; PBS control 5.44%): 8.49%
- CD69+ NK cells in lymph nodes ([13]; PBS control 6.55%): 10.3%
- CD4+ T cells in lymph nodes ([13]; PBS control 63.8%): 68.3%
